Results on 6 molecules are retold here after the supplement of paper PMC7661543.

Experiment in all cases: relative cell number vs DMSO control (72 h) (% of DMSO); higher = less growth inhibition (more cells)
Settings in all cases: sgRNA knockout: sgNT

One assay has as its system HCC-38. As to the method: (§1)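 QMAP-Seq: a pool of 5 breast cancer cell lines (ZR-75-1, SKBR3, HCC-38, MDA-MB-231, BT-20), each carrying 12 doxycycline-inducible Cas9 sgRNA perturbations (11 knockouts plus non-targeting sgNT), was treated with compounds for 72 h at four 10-fold doses (10 nM-10 uM or 1 nM-1 uM range). Barcodes were amplified and sequenced, and cell number was interpolated from 293T spike-in standard curves. The result is expressed as % of the median of DMSO wells. Two biological replicates.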

Another assay has as its system MDA-MB-231. As to the method: as §1
In a further assay the test system is ZR-75-1. As to the method:
as §1

A further assay concerns BT-20. As to the method: as §1
The test system of a further assay is SKBR3. As to the method: as §1

Molecules are shown by their SMILES. ± gives the standard deviation of the averaged measurements.

Consider `C[C@]1(c2nc3c(C(N)=O)cccc3[nH]2)CCCN1` [Veliparib], for which the relative cell number was 106 ± 11 in the assay on HCC-38 (10 nM); 104 ± 4.2 in the assay on HCC-38 (100 nM); 107 ± 18 in the assay on HCC-38 (1000 nM); 89.6 ± 4.9 with HCC-38 (10000 nM); 135 ± 51 in the assay on MDA-MB-231 (10 nM); 144 ± 30 in the assay on MDA-MB-231 (100 nM). The relative cell number came to 148 ± 33 in the assay on MDA-MB-231 (1000 nM); 97.2 ± 8.6 in the assay with MDA-MB-231 (10000 nM); 88.9 ± 56 with ZR-75-1 (10 nM); 96.9 ± 12 with ZR-75-1 (100 nM); 97.1 ± 24 in the assay on ZR-75-1 (1000 nM); 51.4 ± 4.1 with ZR-75-1 (10000 nM). The relative cell number worked out at 109 ± 41 in the assay with BT-20 (10 nM); 116 ± 15 in the assay with BT-20 (100 nM); 118 ± 38 with BT-20 (1000 nM); 91.9 ± 25 in the assay with BT-20 (10000 nM); 107 ± 26 with SKBR3 (10 nM); 104 ± 11 in the assay with SKBR3 (100 nM). Also, the relative cell number came to 97.2 ± 27 in the assay on SKBR3 (1000 nM) and 72.7 ± 38 with SKBR3 (10000 nM).

In the case of `Cc1ccc(Nc2nccc(N(C)c3ccc4c(C)n(C)nc4c3)n2)cc1S(N)(=O)=O` [Pazopanib], the relative cell number was 95.4 ± 1.7 in the assay on HCC-38 (10 nM); 95.2 ± 1.4 in the assay with HCC-38 (100 nM); 95 ± 15 with HCC-38 (1000 nM); 56.8 ± 1.5 in the assay on HCC-38 (10000 nM); 97 ± 39 in the assay with MDA-MB-231 (10 nM); 90.5 ± 16 with MDA-MB-231 (100 nM). The relative cell number in the assay on MDA-MB-231 (1000 nM) stood at 88.68 ± 0.85; in the assay on MDA-MB-231 (10000 nM) it was 66.1 ± 19; in the assay on ZR-75-1 (10 nM), 88.8 ± 3; in the assay with ZR-75-1 (100 nM), 52.6 ± 23; with ZR-75-1 (1000 nM), 60.8 ± 12; with ZR-75-1 (10000 nM), 30.5 ± 1.7. Moreover, the relative cell number in the assay with BT-20 (10 nM) was determined as 102 ± 15; in the assay with BT-20 (100 nM) it was 86.8 ± 3.6; in the assay with BT-20 (1000 nM) it was 110 ± 3.6; in the assay with BT-20 (10000 nM) it was 73.8 ± 16; in the assay with SKBR3 (10 nM), 96.1 ± 6.7; with SKBR3 (100 nM) it was 48.9 ± 20. Besides, the relative cell number came to 93.1 ± 34 in the assay on SKBR3 (1000 nM) and 49.1 ± 5.4 in the assay on SKBR3 (10000 nM).

Regarding `CCOc1ccccc1-n1c(C(C)N2CCN(C(=O)COc3ccc(Cl)cc3)CC2)nc2ccccc2c1=O` (stereo not given) [Erastin], the relative cell number was found to be 97.1 ± 7.7 in the assay with HCC-38 (10 nM); 103 ± 9.8 in the assay on HCC-38 (100 nM); 99.2 ± 13 in the assay on HCC-38 (1000 nM); 60.1 ± 4.2 in the assay on HCC-38 (10000 nM); 90.4 ± 8.9 in the assay on MDA-MB-231 (10 nM); 103 ± 30 in the assay on MDA-MB-231 (100 nM). The relative cell number in the assay with MDA-MB-231 (1000 nM) came out at 87.6 ± 4.9; in the assay with MDA-MB-231 (10000 nM), 25.1 ± 4.8; with ZR-75-1 (10 nM) it was 99.6 ± 21; in the assay on ZR-75-1 (100 nM), 89.4 ± 42; in the assay with ZR-75-1 (1000 nM), 81.3 ± 20; in the assay with ZR-75-1 (10000 nM) it was 60.6 ± 13. For the same molecule, the relative cell number amounted to 122 ± 20 in the assay on BT-20 (10 nM); 84.4 ± 8.1 in the assay with BT-20 (100 nM); 99.8 ± 1.4 with BT-20 (1000 nM); 40 ± 1.6 in the assay with BT-20 (10000 nM); 111.3 ± 0.82 with SKBR3 (10 nM); 85.9 ± 42 with SKBR3 (100 nM). The relative cell number in the assay with SKBR3 (1000 nM) amounted to 118 ± 53; in the assay on SKBR3 (10000 nM), 46 ± 11.

`COc1cc2nccc(Oc3ccc(NC(=O)Nc4cc(C)on4)c(Cl)c3)c2cc1OC` [Tivozanib]: the relative cell number with HCC-38 (10 nM) was 94.3 ± 6.2; in the assay with HCC-38 (100 nM), 94.5 ± 10; in the assay with HCC-38 (1000 nM) it was 98.6 ± 11; with HCC-38 (10000 nM) it was 48.4 ± 2.2; in the assay with MDA-MB-231 (10 nM), 101 ± 2.9; with MDA-MB-231 (100 nM), 105 ± 6.9. Moreover, the relative cell number came to 94.7 ± 14 in the assay on MDA-MB-231 (1000 nM); 63.3 ± 3.9 in the assay with MDA-MB-231 (10000 nM); 83.6 ± 67 in the assay with ZR-75-1 (10 nM); 101 ± 13 with ZR-75-1 (100 nM); 115 ± 4.3 in the assay on ZR-75-1 (1000 nM); 33.8 ± 12 in the assay on ZR-75-1 (10000 nM). The relative cell number is 87.3 ± 13 in the assay on BT-20 (10 nM); 75.4 ± 7 with BT-20 (100 nM); 101 ± 8.1 with BT-20 (1000 nM); 79.4 ± 11 with BT-20 (10000 nM); 103 ± 5.7 with SKBR3 (10 nM); 97.7 ± 19 in the assay on SKBR3 (100 nM). The relative cell number was 96.2 ± 3.3 in the assay with SKBR3 (1000 nM) and 62.3 ± 7 in the assay with SKBR3 (10000 nM).

On to `Cc1onc(-c2ccccc2)c1-c1ccc(S(N)(=O)=O)cc1` [Valdecoxib], for which the relative cell number was 111 ± 12 in the assay on HCC-38 (10 nM); 91.8 ± 8.2 with HCC-38 (100 nM); 99.8 ± 13 in the assay on HCC-38 (1000 nM); 98.4 ± 16 in the assay on HCC-38 (10000 nM); 100 ± 22 in the assay on MDA-MB-231 (10 nM); 113 ± 13 in the assay on MDA-MB-231 (100 nM). For the same molecule, the relative cell number turned out to be 87.1 ± 4.7 with MDA-MB-231 (1000 nM); 82.6 ± 1.5 in the assay with MDA-MB-231 (10000 nM); 95.3 ± 73 in the assay on ZR-75-1 (10 nM); 76.8 ± 16 in the assay with ZR-75-1 (100 nM); 102 ± 37 in the assay with ZR-75-1 (1000 nM); 112 ± 1.4 in the assay with ZR-75-1 (10000 nM). Further, the relative cell number in the assay with BT-20 (10 nM) was found to be 101 ± 5.5; in the assay on BT-20 (100 nM) it was 107 ± 17; in the assay on BT-20 (1000 nM), 102 ± 21; in the assay with BT-20 (10000 nM), 99.62 ± 0.51; in the assay on SKBR3 (10 nM) it was 76.8 ± 16; in the assay with SKBR3 (100 nM), 86.5 ± 37. The relative cell number in the assay on SKBR3 (1000 nM) was found to be 88.5 ± 38; in the assay on SKBR3 (10000 nM), 124 ± 34.

For `Cc1cc(N2CCOCC2)cc2[nH]c(-c3c(NC[C@@H](O)c4cccc(Cl)c4)cc[nH]c3=O)nc12`, the relative cell number was 94.97 ± 0.84 with HCC-38 (10 nM); 89.4 ± 24 in the assay on HCC-38 (100 nM); 93.6 ± 7.3 in the assay with HCC-38 (1000 nM); 30.7 ± 3.4 in the assay with HCC-38 (10000 nM); 85.2 ± 7.6 in the assay with MDA-MB-231 (10 nM); 76.6 ± 42 with MDA-MB-231 (100 nM). Further, the relative cell number in the assay on MDA-MB-231 (1000 nM) amounted to 77.5 ± 2.4; with MDA-MB-231 (10000 nM), 15 ± 2.3; with ZR-75-1 (10 nM) it was 78.8 ± 51; in the assay on ZR-75-1 (100 nM), 53.3 ± 10; with ZR-75-1 (1000 nM) it was 84.2 ± 8.8; in the assay on ZR-75-1 (10000 nM) it was 13.7 ± 10. Moreover, the relative cell number was found to be 70.9 ± 10 with BT-20 (10 nM); 88.3 ± 11 with BT-20 (100 nM); 94 ± 14 in the assay on BT-20 (1000 nM); 67.4 ± 17 in the assay on BT-20 (10000 nM); 107 ± 3.5 in the assay on SKBR3 (10 nM); 73 ± 16 with SKBR3 (100 nM). For the same molecule, the relative cell number in the assay on SKBR3 (1000 nM) turned out to be 60 ± 15; with SKBR3 (10000 nM) it was 60.3 ± 12.
